Results: patent US20250109127A1, “METHODS OF USE OF PHENOXYPROPYLAMINE COMPOUNDS TO TREAT DEPRESSION” (Minerva Neurosciences, Inc., priority 2013, published 2025)
“And” between values parts separate entries of the source, which are not always exact repeats. Equal entries are not always repeated.

Tested on: 5-HT release in the rat prefrontal cortex
Assay: Microdialysis: 5-HT release in prefrontal cortex after I.P. administration
Type: in vivo
Settings: for 5-HT in dialysate, MEAN / 5-HT in dialysate, individual animals: Citalopram 10 mg/kg I.P.
Method: The aim of the study was to evaluate, using microdialysis, the effects of an intraperitoneal (I.P.) administration in rats of three different doses of SON-117 on dopamine and its metabolites, serotonin and its metabolite (5-HIAA), and norepinephrine levels in prefrontal cortex.
Thirty-two adult male Wistar rats were used for the whole study (4 groups of eight animals planned for the study, Table 1).
Surgery was performed on rats weighing about 300 g at the beginning of the experiments. Rats were anaesthetized with Ketamine (50 mg/kg) & Xylazine (15 mg/kg) by intramuscular administration. The animals were placed in a stereotaxic apparatus in the flat-skull position at a constant setting of −3.3 mm between ear bars and the incisor bar. The animals were treated with a local anesthesic (xylocaine 1%, Astra Zeneca) and an analgesic (Temgesic, from Schering Plough, 0.05 mg/kg, s.c.). A rostrocaudal midline incision was made with a lancet to expose the dorsal skull surface. The “stereotaxic zero” was defined by the Bregma in accordance with Paxinos and Watson's atlas (1986). A hole was drilled in the skull with a drill and the meninges were pierced with a sterile needle to implant a CMA12 guide cannula which later received the dialysis probe.
Coordinates used for implanting guide cannula in prefrontal cortex from Bregma were anteroposterior 3.7 mm, mediolateral 0.8 mm, and dorsoventral −2 mm (top of the probe was at −5 mm). The guide cannula was fixed to the skull with two stainless steel screws (1.88 mm outside diameter) anchored. An application of dental cement was added. A plastic collar allowed each animal to be tethered to a Swivel assembly of the CMA 120 awake animal system. Following surgery, rats were kept in individual cages and allowed to recover for a minimum of 3-5 days before the experimentation. The rats were handled and put in plastic bowl for 10 min at least every day to habituate the animals to their new environment for the dialysis. An I.P. administration with saline was also performed every day.
Dialysis probes (CMA12/3 mm, membrane, 20 kD cut-off, Carnegie Medicine, Stockholm, Sweden), were carefully washed before inserting into the guide cannula. The wash was performed with the artificial cerebrospinal fluid (aCSF) medium (NaCl 147 mM, KCl 2.7 mM, CaCl2 1.2 mM, MgCl2 0.85 mM) at room temperature. The dialysis system was then equilibrated at 20° C. at a perfusion rate of 1 μl/min with a Carnegie pump (CMA100). All catheters (FEP tubing, internal volume of 1.2 μl/10 cm, and tubing adaptors) used for microdialysis were treated in the same conditions.
The probes duly prepared were inserted into the guide cannula and the CMA120 Swivel assembly secured to the animal using a plastic collar. Flow through the dialysis probe with aCSF was maintained at a rate of 1 μl/min during the whole experimentation. The first four fractions (corresponding to 2 hours) were discarded to avoid the effects of parenchymal disturbance and to ensure that an approximate steady-state level was reached. Fractions were then collected over a period of 8.5 h during which time the animals remained quiet. The dialysates were automatically collected with an autosampler (microfraction collector CMA 140, Carnegie Medicin) and stored at −80° C. until analysis. […] Perfusion was then maintained for 7 hours with aCSF. The dialysates (30 μl) were collected into 300 μl vials, transferred into dry ice and then kept frozen (−80° C.) until analysis. Frozen samples were shipped to a partner for analysis. At the end of the microdialysis study, a PBS with colored ink was perfused through the probe in order to visualize the dialyzed area.
Catecholamine assay: Concentrations of dopamine, DOPAC, HVA, 5-HIAA, 5-HT, and norepinephrin were determined for each sample by HPLC coupled with electrochemical detection. […]

CN(C)CCCC1(c2ccc(F)cc2)OCc2cc(C#N)ccc21 (centres unmarked) [Citalopram, citalopram, reference compound]
5-HT in dialysate, MEAN (T0-T30 min): 85.23 % of respective basal
5-HT in dialysate, MEAN (T30-T1 h): 218.92 % of respective basal
5-HT in dialysate, individual animals (T30-T1 h): 203.59 % of respective basal and 157.98 % of respective basal and 133.67 % of respective basal and 139.45 % of respective basal and 219.64 % of respective basal and 344.10 % of respective basal and 285.92 % of respective basal and 267.00 % of respective basal
5-HT in dialysate, MEAN (T1 h 30-T2 h): 170.67 % of respective basal
5-HT in dialysate, individual animals (T1 h 30-T2 h): 103.23 % of respective basal and 101.96 % of respective basal and 153.81 % of respective basal and 83.91 % of respective basal and 207.6 % of respective basal and 351.79 % of respective basal and 164.94 % of respective basal and 198.14 % of respective basal
5-HT in dialysate, MEAN (T1 h-T1 h 30): 171.48 % of respective basal
5-HT in dialysate, individual animals (T1 h-T1 h 30): 162.56 % of respective basal and 151.29 % of respective basal and 167.46 % of respective basal and 128.56 % of respective basal and 232.85 % of respective basal and 235.03 % of respective basal and 158.66 % of respective basal and 135.42 % of respective basal
5-HT in dialysate, MEAN (T2 h 30-T3 h): 116.57 % of respective basal
5-HT in dialysate, individual animals (T2 h 30-T3 h): 109.55 % of respective basal and 38.11 % of respective basal and 79.68 % of respective basal and 57.89 % of respective basal and 152.73 % of respective basal and 299.86 % of respective basal and 89.94 % of respective basal and 104.76 % of respective basal
5-HT in dialysate, MEAN (T2 h-T2 h 30): 138.70 % of respective basal
5-HT in dialysate, individual animals (T2 h-T2 h 30): 97.34 % of respective basal and 43.80 % of respective basal and 100.91 % of respective basal and 83.82 % of respective basal and 153.02 % of respective basal and 315.50 % of respective basal and 215.03 % of respective basal and 100.89 % of respective basal
5-HT in dialysate, MEAN (T3 h 30-T4 h): 126.49 % of respective basal
5-HT in dialysate, individual animals (T3 h 30-T4 h): 93.89 % of respective basal and 20.30 % of respective basal and 84.02 % of respective basal and 59.96 % of respective basal and 97.06 % of respective basal and 476.98 % of respective basal and 67.07 % of respective basal and 112.62 % of respective basal
5-HT in dialysate, MEAN (T3 h-T3 h 30): 136.30 % of respective basal
5-HT in dialysate, individual animals (T3 h-T3 h 30): 88.23 % of respective basal and 47.91 % of respective basal and 85.22 % of respective basal and 48.54 % of respective basal and 108.35 % of respective basal and 516.29 % of respective basal and 70.00 % of respective basal and 125.89 % of respective basal
5-HT in dialysate, MEAN (T4 h 30-T5 h): 90.86 % of respective basal
5-HT in dialysate, individual animals (T4 h 30-T5 h): 89.09 % of respective basal and 13.90 % of respective basal and 77.20 % of respective basal and 44.62 % of respective basal and 120.70 % of respective basal and 212.73 % of respective basal and 55.57 % of respective basal and 113.09 % of respective basal
5-HT in dialysate, MEAN (T4 h-T4 h 30): 97.87 % of respective basal
5-HT in dialysate, individual animals (T4 h-T4 h 30): 128.06 % of respective basal and 25.07 % of respective basal and 73.75 % of respective basal and 50.85 % of respective basal and 85.54 % of respective basal and 261.90 % of respective basal and 76.87 % of respective basal and 80.93 % of respective basal
5-HT in dialysate, MEAN (T5 h 30-T6 h): 75.87 % of respective basal
5-HT in dialysate, individual animals (T5 h 30-T6 h): 78.66 % of respective basal and 7.95 % of respective basal and 69.20 % of respective basal and 42.04 % of respective basal and 72.98 % of respective basal and 142.95 % of respective basal and 74.38 % of respective basal and 118.79 % of respective basal
5-HT in dialysate, MEAN (T5 h-T5 h 30): 92.05 % of respective basal
5-HT in dialysate, individual animals (T5 h-T5 h 30): 77.74 % of respective basal and 11.81 % of respective basal and 73.01 % of respective basal and 50.89 % of respective basal and 87.24 % of respective basal and 227.76 % of respective basal and 54.20 % of respective basal and 153.73 % of respective basal
5-HT in dialysate, MEAN (T6 h 30-T7 h): 76.63 % of respective basal
5-HT in dialysate, individual animals (T6 h 30-T7 h): 87.93 % of respective basal and 11.23 % of respective basal and 60.60 % of respective basal and 41.05 % of respective basal
5-HT in dialysate, MEAN (T6 h-T6 h 30): 79.25 % of respective basal
5-HT in dialysate, individual animals (T6 h-T6 h 30): 70.23 % of respective basal and 12.51 % of respective basal and 74.22 % of respective basal and 42.28 % of respective basal and 81.01 % of respective basal and 173.04 % of respective basal and 63.01 % of respective basal and 117.68 % of respective basal
5-HT in dialysate, MEAN (T-30 min-T0 (pre-dose)): 87.59 % of respective basal
5-HT in dialysate, MEAN (T-1 h 30-T-1 h (pre-dose)): 108.45 % of respective basal
5-HT in dialysate, MEAN (T-1 h-T-30 min (pre-dose)): 105.84 % of respective basal
5-HT concentrations in prefrontal cortex, significant increase (citalopram 10 mg/kg IP, from 1 h to 2 h): 219%
5-HT release, maximum increase observed (citalopram 10 mg/kg, at 1 h): 218%
